The values below come from patent US20200383906A1 (Evestra, Inc., priority 2019, published 2020).

“Also recorded” adds a separate entry of the source. Where two headings read alike, the source gives them in different places.

For data set [1] the following is noted: human, cited from earlier work.
For data set [2] the following is noted: young women, 2.0 and 4.0 mg orally; cited from earlier work.
The next data set has as its system ovulation. Description: Clinical study of vaginal rings: ovulation inhibition, follicular maturation. The class given is in vivo, women. As to conditions: used release rate of estriol alone. As to the method:
Testing of three vaginal ring prototypes (Device 1, Device 2, and Device 3, described above) in 12 women as preformed. The expected average release rate per day of each device is described in Table 2. Vaginal ring (VR) insertion was performed after pill cycle completion and menstrual bleeding. Observation of a VR over a period of 21 days. Follow-up after removal of the VR. All VR variants tested inhibit ovulation. Ovulation inhibition persisted for more than 7 days after removal of the rings. Signs of follicular maturation at the start of treatment (higher oestradiol levels) disappear during treatment. The effect reflects inhibition of follicular maturation. For the most part, there were no bleeding events during treatment at all and, where they did occur, only to a very small extent (“spotting”). Withdrawal bleeding was observed only after the highest trimegestone dosage.
The course of the estradiol levels in the circulation reflects follicular maturation in the ovary. FIG. 5 depicts the individual serum concentrations of estradiol during single vaginal application of Device 3. […] After removal of the vaginal ring, the estradiol values increase starting from baseline. This increase reflects follicular maturation. […] FIG. 6 depicts the individual serum concentrations of progesterone during single vaginal application of Device 3. […]

Another data set has as its system ovariectomized rodents. Conditions: parenteral administration; cited from earlier work.
For the next data set, the system named is ovine genital organs. Kind of data set: Experiments in sheep: estrogenic effect of estriol under trimegestone. The class given is in vivo. Conditions: on trimegestone. The source says:
This estrogenic effect in the genital tract in the presence of a progestogen leads to prevention of spotting and intermenstrual bleeding in humans. Such bleedings on the “pill” are an expression of an endometrial estrogen deficiency.

In the next data set the test system is SHBG. As to conditions: women, entire range of tested doses; cited from earlier work.
A further data set has as its target estrogen receptor ERß (Homo sapiens, UniProt Q92731). As to conditions: cited from earlier work.

estrogen receptor ERß, sequence (Q92731 whole entry): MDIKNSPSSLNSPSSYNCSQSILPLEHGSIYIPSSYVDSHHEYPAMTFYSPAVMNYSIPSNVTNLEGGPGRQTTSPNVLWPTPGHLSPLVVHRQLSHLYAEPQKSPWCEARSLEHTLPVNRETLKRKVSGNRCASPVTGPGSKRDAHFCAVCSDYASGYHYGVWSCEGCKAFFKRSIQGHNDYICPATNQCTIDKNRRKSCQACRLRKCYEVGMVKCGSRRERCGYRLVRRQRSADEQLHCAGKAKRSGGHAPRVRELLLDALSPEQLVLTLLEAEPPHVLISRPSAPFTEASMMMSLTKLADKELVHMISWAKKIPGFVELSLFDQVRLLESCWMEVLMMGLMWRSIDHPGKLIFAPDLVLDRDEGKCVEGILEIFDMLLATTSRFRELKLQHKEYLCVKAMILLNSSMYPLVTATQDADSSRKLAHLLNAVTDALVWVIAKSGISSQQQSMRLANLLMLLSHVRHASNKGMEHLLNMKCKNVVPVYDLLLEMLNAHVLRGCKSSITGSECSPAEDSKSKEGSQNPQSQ

Consider `C#C[C@]1(O)CC[C@H]2[C@@H]3CCc4cc(O)ccc4[C@H]3CC[C@@]21C` [EE, 17α-ethinyl estradiol], for which the Oral bioavailability result in data set [1] (oral vs intravenous) is “about 40%”. Besides, in data set [1] (oral), the First pass effect is recorded as 60%.

Turning to `C[C@]12CC[C@@H]3c4ccc(O)cc4CC[C@H]3[C@@H]1CC[C@@H]2O` [Estradiol-17ß], the Oral bioavailability in data set [2] was 4.9+/−5%.

Turning to `C[C@]12CC[C@@H]3c4ccc(O)cc4CC[C@H]3[C@@H]1C[C@@H](O)[C@@H]2O` [estriol], the “Levels of FSH and LH” value in the data set on ovulation is recorded as “decreased”. Moreover, the “Estrogenic potency compared with estradiol” value with ovariectomized rodents is on record as “about factor ten weaker”. The “Estrogenic effect of estriol in the genital tract in the presence of trimegestone” value in the data set with ovine genital organs is recorded as “is not inhibited; also recorded: are not attenuated”. In addition, in the data set on SHBG, the “Changes in surrogate parameter SHBG” value was “no relevant changes were seen”. In addition, on estrogen receptor ERß, the “Binding with ERß compared with estradiol” value is “weaker and less stable binding”.
